From patent US7842808B2, “Anti-migraine spirocycles” (Bristol-Myers Squibb Company, priority 2002, dated 2010)
pIC50: −log10 of the molar value.

Experiments:
[1] = target: T1, CGRP receptor (SK-N-MC cell membranes) (Homo sapiens, UniProt O60894+Q16602); assay: CGRP Binding Assay ([125I]-CGRP radioligand binding, SK-N-MC homogenate); details: displacement of [125I]-CGRP, SK-N-MC homogenate; read-out: CGRP binding IC50
T1 construct: endogenous in cells; host or cells: SK-N-MC cells (membrane homogenate)

[2] = target: T2, human CGRP receptor (SK-N-MC cells) (Homo sapiens, UniProt O60894+Q16602); assay: Cyclic AMP Assay, functional antagonism of CGRP-induced cyclic AMP formation; assay type: cell-based; details: SK-N-MC cells, 0.3 nM CGRP; read-out: cAMP Function IC50
T2 construct: SK-N-MC cells that endogenously express the human CGRP receptor; endogenous in cells; host or cells: SK-N-MC cells
In short: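 SK-N-MC cells, which endogenously express human CGRP receptor, stimulated with 0.3 nM CGRP with or without compound for 30 min at room temperature. Cellular cAMP extracted by lysis and quantified by SPA radioimmunoassay; IC50 from inhibition of CGRP-induced cAMP.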

T1 sequence (Q16602 23-461): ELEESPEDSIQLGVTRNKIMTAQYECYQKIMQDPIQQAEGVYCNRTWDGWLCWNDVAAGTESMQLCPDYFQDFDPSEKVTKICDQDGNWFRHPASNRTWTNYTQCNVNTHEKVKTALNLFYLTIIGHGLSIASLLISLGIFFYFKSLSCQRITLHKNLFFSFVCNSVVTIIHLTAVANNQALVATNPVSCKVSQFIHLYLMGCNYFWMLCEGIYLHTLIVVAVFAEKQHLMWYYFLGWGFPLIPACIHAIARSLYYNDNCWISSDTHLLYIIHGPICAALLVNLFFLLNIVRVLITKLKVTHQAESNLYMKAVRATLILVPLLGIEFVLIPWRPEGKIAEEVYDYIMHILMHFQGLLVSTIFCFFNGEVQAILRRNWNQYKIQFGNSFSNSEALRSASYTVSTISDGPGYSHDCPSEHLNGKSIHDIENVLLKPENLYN
T1 sequence (O60894 27-148): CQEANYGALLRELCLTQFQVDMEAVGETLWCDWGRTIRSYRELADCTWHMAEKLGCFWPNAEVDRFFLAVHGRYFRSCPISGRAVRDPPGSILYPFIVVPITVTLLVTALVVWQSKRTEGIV
T2 sequence (Q16602 23-461): as the sequence (Q16602 23-461) above
T2 sequence (O60894 27-148): as the sequence (O60894 27-148) above

Row | SMILES | pIC50 [1] | pIC50 [2]
1 | Cc1cc(CC(NC(=O)N2CCC(N3Cc4ccccc4NC3=O)CC2)C(=O)N2CCC(N3CCCCC3)CC2)cc2cn[nH]c12 (racemic) [Example 16, (±)-4-(2-Oxo-1,4-dihydro-2H-quinazolin-3-yl)-piperidine-1-carboxylic acid[2-[1,4′]bipiperidinyl-1′-yl-1-(7-methyl-1H-indazol-5-ylmethyl)-2-oxo-ethyl]-amide] | > 8.00 | > 8.00
2 | Cc1cc(CC(CC(=O)N2CCC(N3Cc4ccccc4NC3=O)CC2)C(=O)N2CCC(N3CCCCC3)CC2)cc2cn[nH]c12 (racemic) [Example 69, (±)-1-[1,4′]Bipiperidinyl-1′-yl-2-(7-methyl-1H-indazol-5-ylmethyl)-4-[4-(2-oxo-1,4-dihydro-2H-quinazolin-3-yl)-piperidin-1-yl]-butane-1,4-dione] | > 8.00 | > 8.00
